From patent US20150175599A1, “FAAH Inhibitors” (Ironwood Pharmaceuticals, Inc., priority 2010, published 2015) come the findings set out here.

A value given as a limit tells only on which side of the number the result lay.

Data set [1] is described as follows: Pharmacokinetic study, plasma level 2 hours after oral dosing in rats. Type of data set: in vivo. In a few lines: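 Rats dosed by oral gavage in 1% DMA/99% Vitamin E TPGS; EDTA plasma taken by retro-orbital bleed 2 h post-dose. Acetonitrile precipitation with internal standard, LC/MS/MS quantitation against plasma standards 0.1–3000 ng/mL.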
The next data set deals with T1, hERG channel (Homo sapiens, UniProt Q12809).
T1 construct: expressed in transfected cells; host or cells: CHO (hERG-CHO), under Geneticin selection
The experiment in a line: hERG channel inhibition, automated patch clamp (IonWorks HT, hERG-CHO). The class given is cell-based. The conditions noted are these: CHO cells expressing hERG, 600 s incubation; for inhibition at 600 s, 1 µM: 1 μM compound, read-out: hERG Channel Inhibition % (at 1 μM), vehicle-subtracted values; for inhibition at 600 s, 10 µM: 10 μM compound, read-out: hERG Channel Inhibition % (at 10 μM), vehicle-subtracted values. An outline of the steps: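 hERG-CHO cells held at 30 °C for 48 h before IonWorks HT patch clamp: from −80 mV to +40 for 2 s, then −50 mV for 2 s tail, repeated three times, before and after 600 s compound exposure. Third-pulse post/pre tail amplitude ratio gave percent inhibition; cells with seal <50 MOhm or tail <250 pA excluded.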
(The hERG channel carries a current that helps repolarise heart muscle cells.)

T1 sequence (Q12809 whole entry): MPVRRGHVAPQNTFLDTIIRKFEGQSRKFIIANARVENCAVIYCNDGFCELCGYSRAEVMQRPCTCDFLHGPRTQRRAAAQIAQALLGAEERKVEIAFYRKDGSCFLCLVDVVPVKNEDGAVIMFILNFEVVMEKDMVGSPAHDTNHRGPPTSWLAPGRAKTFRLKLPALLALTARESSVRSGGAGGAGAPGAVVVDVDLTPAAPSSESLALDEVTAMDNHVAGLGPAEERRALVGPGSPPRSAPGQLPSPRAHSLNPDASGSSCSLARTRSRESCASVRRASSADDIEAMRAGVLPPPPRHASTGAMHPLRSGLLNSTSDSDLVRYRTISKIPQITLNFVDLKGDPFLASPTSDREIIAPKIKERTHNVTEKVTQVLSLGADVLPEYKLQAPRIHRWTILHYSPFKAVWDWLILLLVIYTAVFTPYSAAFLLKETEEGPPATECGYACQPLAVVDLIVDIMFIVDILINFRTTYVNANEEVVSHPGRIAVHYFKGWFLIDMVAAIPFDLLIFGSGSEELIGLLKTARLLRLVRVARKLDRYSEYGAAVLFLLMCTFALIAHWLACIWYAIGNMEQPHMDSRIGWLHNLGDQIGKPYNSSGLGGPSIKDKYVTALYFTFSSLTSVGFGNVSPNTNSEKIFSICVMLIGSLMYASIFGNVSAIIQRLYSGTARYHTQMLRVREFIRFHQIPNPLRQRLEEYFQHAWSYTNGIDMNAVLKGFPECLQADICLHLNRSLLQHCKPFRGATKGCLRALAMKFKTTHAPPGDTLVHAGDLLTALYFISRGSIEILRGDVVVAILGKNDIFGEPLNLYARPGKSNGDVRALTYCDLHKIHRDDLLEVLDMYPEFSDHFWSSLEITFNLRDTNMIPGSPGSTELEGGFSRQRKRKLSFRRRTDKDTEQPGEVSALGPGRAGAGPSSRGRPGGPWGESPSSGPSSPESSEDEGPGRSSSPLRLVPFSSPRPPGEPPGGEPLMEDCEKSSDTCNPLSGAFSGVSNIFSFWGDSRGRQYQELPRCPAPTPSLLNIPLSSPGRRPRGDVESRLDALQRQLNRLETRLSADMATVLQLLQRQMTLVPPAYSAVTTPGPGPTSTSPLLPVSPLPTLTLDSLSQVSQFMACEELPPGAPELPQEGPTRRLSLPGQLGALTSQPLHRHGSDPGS

Turning to `COc1cnc2c(c1)c(C(=O)C(=O)Nc1ccnc(OC)c1)c(C)n2Cc1ncc(Cl)cc1F` [Compound 34, 2-(1-((5-chloro-3-fluoropyridin-2-yl)methyl)-5-methoxy-2-methyl-1H-pyrrolo[2,3-b]pyridin-3-yl)-N-(2-methoxypyridin-4-yl)-2-oxoacetamide], the “2 hr plasma level-ng/mL (rat, 10 mg/kg PO, 2 hr)” value (“2 hr plasma level-ng/mL” for short) in data set [1] is reported as “D (D = greater than 1000 nM)”. Also, on hERG channel, the inhibition at 600 s, 1 µM was less than 25% and the inhibition at 600 s, 10 µM is less than 25%.

Take `COc1ccc(Cn2c(C)c(C(=O)C(=O)Nc3ccnc(OC)c3)c3cc(OC)c(C)cc32)nc1` [Compound 96, 2-(5-methoxy-1-((5-methoxypyridin-2-yl)methyl)-2,6-dimethyl-1H-indol-3-yl)-N-(2-methoxypyridin-4-yl)-2-oxoacetamide]: in data set [1], the “2 hr plasma level-ng/mL” value was “C (C = between 100 nM and 1000 nM)”. Also, at hERG channel, the inhibition at 600 s, 1 µM was less than 25% and the inhibition at 600 s, 10 µM is less than 25%.

Consider `COc1cc(NC(=O)C(=O)c2c(C)n(Cc3ccc(Cl)cc3)c3ccc(O)cc23)ccn1` [Compound 2, 2-(1-(4-chlorobenzyl)-5-hydroxy-2-methyl-1H-indol-3-yl)-N-(2-methoxypyridin-4-yl)-2-oxoacetamide], for which the “2 hr plasma level-ng/mL” value in data set [1] is on record as “A (A = Less than 10 nM)”. Besides, on hERG channel, the inhibition at 600 s, 1 µM was less than 25% and the inhibition at 600 s, 10 µM was less than 25%.

Turning to `COc1cc(NC(=O)C(=O)c2c(C)n(Cc3ccc(Cl)cc3)c3ccc([N+](=O)[O-])cc23)ccn1` [Compound 19, 2-(1-(4-chlorobenzyl)-2-methyl-5-nitro-1H-indol-3-yl)-N-(2-methoxypyridin-4-yl)-2-oxoacetamide], the “2 hr plasma level-ng/mL” value in data set [1] is “C (C = between 100 nM and 1000 nM)”. In addition, on hERG channel, the inhibition at 600 s, 1 µM is less than 25% and the inhibition at 600 s, 10 µM was 25 to 50%.

For `COc1cc(NC(=O)C(=O)c2c(C)n(Cc3ncc(F)cc3F)c3ccc(C)cc23)ccn1` [Compound 88, 2-(1-((3,5-difluoropyridin-2-yl)methyl)-2,5-dimethyl-1H-indol-3-yl)-N-(2-methoxypyridin-4-yl)-2-oxoacetamide], in data set [1], the “2 hr plasma level-ng/mL” value was “D (D = greater than 1000 nM)”. On hERG channel, the inhibition at 600 s, 1 µM was less than 25% and the inhibition at 600 s, 10 µM is less than 25%.

With `COCc1ccc2c(c1)c(C(=O)C(=O)Nc1ccnc(OC)c1)c(C)n2Cc1ccc(Cl)cc1` [Compound 11, 2-(1-(4-chlorobenzyl)-5-(methoxymethyl)-2-methyl-1H-indol-3-yl)-N-(2-methoxypyridin-4-yl)-2-oxoacetamide], in data set [1], the “2 hr plasma level-ng/mL” value is “C (C = between 100 nM and 1000 nM)”. Besides, on hERG channel, the inhibition at 600 s, 1 µM is less than 25% and the inhibition at 600 s, 10 µM lay in the range of 25 to 50%.

Usually inhibition stands for the relative decrease from the control value, in per cent.
